Experimental data from US12448388B2, “PRMT5 inhibitors and uses thereof” (Gilead Sciences, Inc., priority 2023, dated 2025).
Where “and” joins values, the source holds several entries; their conditions need not be identical. Equal values may be shown once.

Experiments:
[1] = biological target: T1, hERG ion channel (Homo sapiens, UniProt Q12809); experiment: hERG assay (automated patch clamp, QPatch HT); assay type: cell-based; details: HEK293 hERG, * = accurate hERG measurement may be limited by compound solubility
T1 construct: host or cells: HEK293
Description: Cell lines and cell culture: The HEK293 cell line stably expressing the hERG ion channel was provided from Charles River laboratories. Cells were maintained in tissue culture incubators per Charles River Laboratories SOP. Stocks were maintained in cryogenic storage. HEK293 cells were stably transfected with hERG cDNA.
Automated Patch Clamp Procedures: In preparation for a recording session, intracellular solution was loaded into the intracellular compartments of the QPlate and cell suspension was pipetted into the extracellular compartments. After establishment of a whole-cell configuration, membrane currents were recorded using up to 48 parallel patch clamp amplifiers in the QPatch HT® system. The current records were sampled at 2000 Hz and low-pass Bessel filtered at 400 Hz.
Valid whole-cell recordings met the following criteria: • 1. Membrane resistance ≥200 MΩ. • 2. Leak current 25% channel current or subtracted.
hERG Test Procedures: Onset and block of hERG current was measured using a stimulus voltage pattern consisting of a 500 ms prepulse to −40 mV (leakage subtraction), a 2-second activating pulse to +40 mV followed by a 2-second test pulse to −40 mV. The pulse pattern was repeated continuously at 10 s intervals from a holding potential of −80 mV. Peak tail current was measured during the −40 mV test pulse. Leakage current was calculated from the current amplitude evoked by the −40 mV prepulse and subtracted from the total membrane current record.
Data Analysis: Data acquisition and analysis were performed using the QPatch Assay Software (Sophion Bioscience A/S, Denmark). Steady state was defined by the limiting constant rate of change with time (linear time dependence). The steady state before and after test article application were used to calculate the percentage of current inhibited at each concentration. Run down, a time-dependent reduction of current amplitude, may be compensated for in the QPatch Assay Software using standard system tools. Concentration-response data was fit to an equation of the following form: […]
Where [Test] is the concentration of test compound, IC50 is the concentration of the test compound producing half-maximal inhibition, N is the Hill coefficient and % Block is the percentage of current inhibited at each concentration of the test article. Nonlinear least squares fits will be solved with the Solver add-in for Excel 2000 or later (Microsoft, Redmond, WA).

[2] = Hepatocyte stability assay, cynomolgus monkey; assay type: in vitro ADME
Description: (§1) BioreclamationIVT (Baltimore, MD) provided the cryopreserved hepatocytes, hepatocyte thawing (HT) medium, and Krebs-Henseleit buffer (KHB) medium. The stock solution concentration was 1 M in DMSO and was then diluted further in acetonitrile/water (1:1 v/v). All other chemicals were purchased from Sigma-Aldrich (St. Louis, MO) or Thermo Fisher Scientific (Waltham, MA).
(§2) The quench solution used to stop reactions in the hepatocyte incubations was comprised of 100% (v/v) acetonitrile. Internal Standard/Quench (IS/Q) solution used to stop reactions with the positive control also contained 200 nM Labetalol.
(§3) Metabolic Stability in Cryopreserved Hepatocytes: Test compounds, or the positive control metabolic substrate, was incubated in suspensions of cryopreserved hepatocytes at a final concentration of 1 μM. Vials containing cryopreserved hepatocytes were removed from liquid nitrogen and immediately immersed in a 37° C. water bath. The vials were swirled gently until the contents had thawed. They were then immediately emptied into 48 mL of pre-warmed thawing medium in a 50 mL conical tube. Cells remaining in the vial were re-suspended with 1.0 mL of pre-warmed thawing medium and added to the conical tube. The tube was capped and then gently inverted several times to re-suspend the hepatocytes. The cell suspension was centrifuged at 500×g for 10 minutes at room temperature and the supernatant discarded. The cell pellet was loosened by gently swirling the centrifuge tube. Non-supplemented KHB medium was added to obtain the appropriate target cell density. The viabilities of all cell preparations were ≥85%, assessed by Trypan blue dye exclusion.
(§4) For incubations, aliquots of hepatocyte suspension (250 μL containing a cell concentration of 2×10^6 cells/mL) were added to 250 μL of 2 μM substrate (test compound or positive control) in supplemented KHB in duplicate wells in a 24-well plate. Final concentration in the incubations were 1×10^6 cells/mL and 1 μM substrate. A cell-free control incubation (KHB only) was also included. The incubations were carried out with gentle shaking in a 37° C. incubator under a humid atmosphere of 95% air/5% CO2 (v/v). Aliquots (100 μL) were removed after 0, 1, 3, and 6 hours and added to 200 μL quenching solution. The samples were then placed on a shaker for 10 min followed by centrifugation at 3000×g for 20 min. The supernatant was transferred to a new plate and diluted with 100 μL of water to reduce the organic content and then placed on a shaker for 10 mins. Samples were injected and analyzed with methods described below.
(§5) Liquid Chromatography: Quantification of positive control and test compound was performed by analyte/internal standard peak area ratios (PAR) measured on a Thermo Scientific™ Q Exactive™ Hybrid Quadrupole-Orbitrap Mass Spectrometer MS/MS with an electrospray interface operating in positive ion mode. The mass spectrometer was coupled to a Dionex Ultimate® 3000 HPLC system. Samples (10 μL aliquots) were injected with a Leap Technologies HTC PAL autosampler. For positive control, the column used was a Thermo Scientific™ Hypersil GOLD™ HPLC column ([…], 50×2.1 mm). Mobile phase A consisted of 95% (v/v) water, 5% (v/v) acetonitrile, and contained 0.1% (v/v) formic acid (FA). Mobile phase B consisted of 95% (v/v) acetonitrile, 5% (v/v) water, and contained 0.1% (v/v) FA. Elution was achieved, at a flow rate of 0.5 mL/min, by a series of linear gradients: initial condition was 5% B at 0 min, isocratic for 20 seconds; then linear gradient to 95% B over 90 seconds, followed by isocratic for 60 seconds at 95% B, and re-equilibrated to initial conditions over 70 seconds.
(§6) Metabolic stabilities of positive control and test compound were determined by measuring the rates of disappearance of the parent with time by determining the % of parent remaining at time t (Ct) {Obach 1997}.
(§7) Data (% of parent remaining) were plotted on a semi-log scale and fitted using an exponential fit: […]

[3] = Hepatocyte stability assay, dog; assay type: in vitro ADME; details: Beagle Dog
Description: as §1, §2, §3, §4, §5, §6, §7

T1 sequence (Q12809 whole entry): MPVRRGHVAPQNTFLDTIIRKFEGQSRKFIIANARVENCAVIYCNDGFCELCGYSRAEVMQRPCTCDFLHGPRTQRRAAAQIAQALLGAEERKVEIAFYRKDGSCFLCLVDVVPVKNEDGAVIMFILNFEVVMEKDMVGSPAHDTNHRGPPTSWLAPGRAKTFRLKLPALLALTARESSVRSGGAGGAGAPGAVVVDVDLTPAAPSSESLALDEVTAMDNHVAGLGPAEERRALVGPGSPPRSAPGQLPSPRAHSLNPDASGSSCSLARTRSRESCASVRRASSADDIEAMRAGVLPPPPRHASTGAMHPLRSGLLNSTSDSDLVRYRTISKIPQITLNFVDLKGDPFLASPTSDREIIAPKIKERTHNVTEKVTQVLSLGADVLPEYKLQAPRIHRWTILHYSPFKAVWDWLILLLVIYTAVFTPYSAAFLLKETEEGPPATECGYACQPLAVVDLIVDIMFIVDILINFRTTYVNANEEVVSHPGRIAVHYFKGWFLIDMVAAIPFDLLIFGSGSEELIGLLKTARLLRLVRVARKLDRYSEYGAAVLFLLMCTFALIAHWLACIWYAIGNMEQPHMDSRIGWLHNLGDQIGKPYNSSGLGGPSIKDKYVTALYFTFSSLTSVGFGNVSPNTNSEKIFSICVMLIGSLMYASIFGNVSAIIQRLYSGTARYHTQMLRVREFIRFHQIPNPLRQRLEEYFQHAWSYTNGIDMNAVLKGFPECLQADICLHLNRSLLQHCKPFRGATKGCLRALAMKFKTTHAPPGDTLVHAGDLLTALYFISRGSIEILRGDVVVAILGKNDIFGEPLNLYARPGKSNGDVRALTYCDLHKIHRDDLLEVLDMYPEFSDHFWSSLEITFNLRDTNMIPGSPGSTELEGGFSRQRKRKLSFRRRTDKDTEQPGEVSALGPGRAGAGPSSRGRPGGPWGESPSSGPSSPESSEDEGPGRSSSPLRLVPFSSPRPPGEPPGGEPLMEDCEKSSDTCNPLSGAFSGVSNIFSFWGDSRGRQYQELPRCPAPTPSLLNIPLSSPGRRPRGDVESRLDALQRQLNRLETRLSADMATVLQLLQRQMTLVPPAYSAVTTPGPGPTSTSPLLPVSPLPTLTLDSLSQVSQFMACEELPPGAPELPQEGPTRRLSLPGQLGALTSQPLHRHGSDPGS

SMILES | IC50 [1] [µM] | Predicted Hepatocyte CL [2] | Predicted Hepatocyte CL [3]
C[C@H]1CN(C(=O)c2cc3c(cc2F)nc(N)c2cncn23)[C@H]2c3ccc(C(F)(F)F)cc3C[C@H]2O1 (single isomer, unassigned) [Ff-81] | 27.7 | 0.15 L/h/kg | 0.21 L/h/kg
Nc1nc2cc(F)c(C(=O)N3CCO[C@@H]4Cc5cc(C(F)(F)F)ccc5[C@@H]43)cc2n2cncc12 (single isomer, unassigned) [Ff-82] | > 30 |  | 
C[C@@H]1CN(C(=O)c2cc3c(cc2F)nc(N)c2cncn23)[C@H]2c3cc(F)c(OC(F)(F)F)cc3C[C@H]2O1 (single isomer, unassigned) [Ff-197] | 11.9 |  | 
Nc1nc2cnc(C(=O)N3CC[C@H]4C[C@@H]3c3c(F)cc(C(F)(F)F)cc3O4)cc2n2cncc12 (single isomer, unassigned) [Ff-694] | 16.2 |  | 
Nc1nc2cnc(C(=O)N3CCC[C@@H]4Oc5cc(C(F)(F)F)cc(F)c5[C@@H]43)cc2n2cncc12 (single isomer, unassigned) [Fg-53] | 9.95 | 0.18 L/h/kg | 0.61 L/h/kg
Nc1nc2cnc(C(=O)N3CCC[C@@H]4Oc5cc(OC(F)(F)F)cc(F)c5[C@@H]43)cc2n2cncc12 (single isomer, unassigned) [Fg-55] | 6.2 | 0.25 L/h/kg | 0.75 L/h/kg
Nc1nc2cc(F)c(C(=O)N3CCC[C@@H]4Oc5cc(C(F)(F)F)ccc5[C@@H]43)cc2n2cncc12 [Ff-104, (4-amino-7-fluoroimidazo[1,5-a]quinoxalin-8-yl)((4aS,9bS)-7-(trifluoromethyl)-3,4,4a,9b-tetrahydrobenzofuro[3,2-b]pyridin-1(2H)-yl)methanone] | 14.2 | 0.29 L/h/kg and 0.28 L/h/kg | 0.38 L/h/kg and 0.67 L/h/kg
Nc1nc2cnc(C(=O)N3CCC[C@@H]4Oc5cc(C(F)(F)F)ccc5[C@@H]43)cc2n2cncc12 [Ff-110, (4-aminoimidazo[1,5-a]pyrido[3,4-e]pyrazin-8-yl)((4aS,9bS)-7-(trifluoromethyl)-3,4,4a,9b-tetrahydrobenzofuro[3,2-b]pyridin-1(2H)-yl)methanone] | 8.47 |  | 
Nc1nc2ccc(C(=O)N3CCC[C@@H]4Oc5cc(C(F)(F)F)ccc5[C@@H]43)cc2n2cncc12 [Ff-111, (4-aminoimidazo[1,5-a]quinoxalin-8-yl)((4aS,9bS)-7-(trifluoromethyl)-3,4,4a,9b-tetrahydrobenzofuro[3,2-b]pyridin-1(2H)-yl)methanone] | 6.7 | 0.28 L/h/kg | 0.74 L/h/kg
Cc1ncc2c(N)nc3cnc(C(=O)N4CCC[C@@H]5Oc6cc(OC(F)(F)F)ccc6[C@@H]54)cc3n12 [Ff-340, (4-amino-1-methylimidazo[1,5-a]pyrido[3,4-e]pyrazin-8-yl)((4aS,9bS)-7-(trifluoromethoxy)-3,4,4a,9b-tetrahydrobenzofuro[3,2-b]pyridin-1(2H)-yl)methanone] |  | 0.2 L/h/kg | 0.72 L/h/kg
Nc1nc2cnc(C(=O)N3CCC[C@@H]4Oc5cc(OC(F)(F)F)ccc5[C@@H]43)cc2n2cncc12 [Ff-341, (4-aminoimidazo[1,5-a]pyrido[3,4-e]pyrazin-8-yl)((4aS,9bS)-7-(trifluoromethoxy)-3,4,4a,9b-tetrahydrobenzofuro[3,2-b]pyridin-1(2H)-yl)methanone] |  | 0.34 L/h/kg | 0.74 L/h/kg
Cc1ncn2c1c(N)nc1cnc(C(=O)N3CCC[C@@H]4Oc5cc(C(F)(F)F)ccc5[C@@H]43)cc12 [Ff-499, (4-amino-3-methylimidazo[1,5-a]pyrido[3,4-e]pyrazin-8-yl)((4aS,9bS)-7-(trifluoromethyl)-3,4,4a,9b-tetrahydrobenzofuro[3,2-b]pyridin-1(2H)-yl)methanone] | 17.5 | 0.92 L/h/kg | 0.92 L/h/kg
